Laboratory results as given in publication PMC10620772, “Design, synthesis, and biological evaluation of new pyrimidine-5-carbonitrile derivatives as novel anti-cancer, dual EGFR^WT/COX-2 inhibitors with docking studies” (RSC Advances, 2023).

Assays:
Experiment in all cases: NCI60 antitumor screening
Assay type in all cases: cell-based, human
[1] = test system: SK-MEL-2; conditions: for inhibition at 10 µM: Homo sapiens, 10 μM single dose, SK-MEL-2 (melanoma), read-out: growth inhibition percent (GI%)
[2] = test system: HOP-62; conditions: for inhibition at 10 µM: Homo sapiens, 10 μM single dose, HOP-62 (non-small cell lung cancer), read-out: growth inhibition percent (GI%); for GI%: 10 μM one-dose
[3] = test system: NCI-H226; conditions: for inhibition at 10 µM: Homo sapiens, 10 μM single dose, NCI-H226 (non-small cell lung cancer), read-out: growth inhibition percent (GI%); for GI%: 10 μM one-dose
[4] = test system: HOP-92; conditions: for inhibition at 10 µM: Homo sapiens, 10 μM single dose, HOP-92 (non-small cell lung cancer), read-out: growth inhibition percent (GI%)
[5] = test system: EKVX; conditions: for inhibition at 10 µM: Homo sapiens, 10 μM single dose, EKVX (non-small cell lung cancer), read-out: growth inhibition percent (GI%)
[6] = test system: BT-549; conditions: for inhibition at 10 µM: Homo sapiens, 10 μM single dose, BT-549 (breast cancer), read-out: growth inhibition percent (GI%)
[7] = test system: UO-31; conditions: for inhibition at 10 µM: Homo sapiens, 10 μM single dose, UO-31 (renal cancer), read-out: growth inhibition percent (GI%)
[8] = test system: A549/ATCC; conditions: for inhibition at 10 µM: Homo sapiens, 10 μM single dose, A549/ATCC (non-small cell lung cancer), read-out: growth inhibition percent (GI%)
[9] = test system: 786–0; conditions: for inhibition at 10 µM: Homo sapiens, 10 μM single dose, 786–0 (renal cancer), read-out: growth inhibition percent (GI%); for GI%: 10 μM one-dose
[10] = test system: MALME-3M; conditions: for inhibition at 10 µM: Homo sapiens, 10 μM single dose, MALME-3M (melanoma), read-out: growth inhibition percent (GI%)
[11] = test system: K-562; conditions: for inhibition at 10 µM: Homo sapiens, 10 μM single dose, (leukaemia), read-out: growth inhibition percent (GI%); for GI%: 10 μM one-dose
[12] = test system: NCI-H522; conditions: for inhibition at 10 µM: Homo sapiens, 10 μM single dose, NCI-H522 (non-small cell lung cancer), read-out: growth inhibition percent (GI%)
[13] = test system: U251; conditions: for inhibition at 10 µM: Homo sapiens, U-251, 10 μM single dose, U251 (CNS cancer), read-out: growth inhibition percent (GI%)
[14] = test system: SW-620; conditions: for inhibition at 10 µM: Homo sapiens, 10 μM single dose, SW-620 (colon cancer), read-out: growth inhibition percent (GI%)
[15] = test system: MDA-MB-435; conditions: for inhibition at 10 µM: Homo sapiens, 10 μM single dose, MDA-MB-435 (melanoma), read-out: growth inhibition percent (GI%)
[16] = test system: HT29; conditions: for inhibition at 10 µM: Homo sapiens, HT-29, 10 μM single dose, HT29 (colon cancer), read-out: growth inhibition percent (GI%)
[17] = test system: PC-3; conditions: for inhibition at 10 µM: Homo sapiens, 10 μM single dose, PC-3 (prostate cancer), read-out: growth inhibition percent (GI%)
[18] = test system: NCI-H23; conditions: for inhibition at 10 µM: Homo sapiens, 10 μM single dose, NCI-H23 (non-small cell lung cancer), read-out: growth inhibition percent (GI%)
[19] = test system: HS 578T; conditions: for inhibition at 10 µM: Homo sapiens, 10 μM single dose, HS 578T (breast cancer), read-out: growth inhibition percent (GI%); for GI%: 10 μM one-dose
[20] = test system: SF-295; conditions: for inhibition at 10 µM: Homo sapiens, 10 μM single dose, SF-295 (CNS cancer), read-out: growth inhibition percent (GI%)
[21] = test system: HCT-15; conditions: for inhibition at 10 µM: Homo sapiens, 10 μM single dose, HCT-15 (colon cancer), read-out: growth inhibition percent (GI%)
[22] = test system: OVCAR-4; conditions: for inhibition at 10 µM: Homo sapiens, 10 μM single dose, OVCAR-4 (ovarian cancer), read-out: growth inhibition percent (GI%); for GI%: 10 μM one-dose
[23] = test system: NCI-H460; conditions: for inhibition at 10 µM: Homo sapiens, 10 μM single dose, NCI-H460 (non-small cell lung cancer), read-out: growth inhibition percent (GI%)
[24] = test system: DU-145; conditions: for inhibition at 10 µM: Homo sapiens, DU-145, read-out: growth inhibition percent (GI%)
[25] = test system: SN12C; conditions: for inhibition at 10 µM: Homo sapiens, 10 μM single dose, SN12C (renal cancer), read-out: growth inhibition percent (GI%)
[26] = test system: CCRF-CEM; conditions: for inhibition at 10 µM: Homo sapiens, 10 μM single dose, CCRF-CEM (leukaemia), read-out: growth inhibition percent (GI%)
[27] = test system: M14; conditions: for inhibition at 10 µM: Homo sapiens, 10 μM single dose, M14 (melanoma), read-out: growth inhibition percent (GI%)
[28] = test system: MDA-MB-468; conditions: for inhibition at 10 µM: Homo sapiens, 10 μM single dose, MDA-MB-468 (breast cancer), read-out: growth inhibition percent (GI%)
[29] = test system: RPMI-8226; conditions: for inhibition at 10 µM: Homo sapiens, 10 μM single dose, RPMI-8226 (leukaemia), read-out: growth inhibition percent (GI%)
[30] = test system: HCC-2998; conditions: for inhibition at 10 µM: Homo sapiens, 10 μM single dose, HCC-2998 (colon cancer), read-out: growth inhibition percent (GI%)
[31] = test system: KM12; conditions: for inhibition at 10 µM: Homo sapiens, 10 μM single dose, KM12 (colon cancer), read-out: growth inhibition percent (GI%)
[32] = test system: T-47D; conditions: for inhibition at 10 µM: Homo sapiens, T47D, 10 μM single dose, T-47D (breast cancer), read-out: growth inhibition percent (GI%)
[33] = test system: OVCAR-5; conditions: for inhibition at 10 µM: Homo sapiens, 10 μM single dose, OVCAR-5 (ovarian cancer), read-out: growth inhibition percent (GI%)
[34] = test system: SNB-75; conditions: for inhibition at 10 µM: Homo sapiens, 10 μM single dose, SNB-75 (CNS cancer), read-out: growth inhibition percent (GI%)
[35] = test system: IGROV1; conditions: for inhibition at 10 µM: Homo sapiens, IGROV-1, 10 μM single dose, IGROV1 (ovarian cancer), read-out: growth inhibition percent (GI%)
[36] = test system: MOLT-4; conditions: for inhibition at 10 µM: Homo sapiens, 10 μM single dose, MOLT-4 (leukaemia), read-out: growth inhibition percent (GI%)
[37] = test system: HCT-116; conditions: for inhibition at 10 µM: Homo sapiens, 10 μM single dose, HCT-116 (colon cancer), read-out: growth inhibition percent (GI%)
[38] = test system: OVCAR-3; conditions: for inhibition at 10 µM: Homo sapiens, 10 μM single dose, OVCAR-3 (ovarian cancer), read-out: growth inhibition percent (GI%)
[39] = test system: UACC-62; conditions: for inhibition at 10 µM: Homo sapiens, 10 μM single dose, UACC-62 (melanoma), read-out: growth inhibition percent (GI%)

N#Cc1c(-c2ccc(F)cc2)nc(SCc2ccc(F)cc2)nc1N1CCN(c2ccccc2)CC1 [4n, 2-((4-Fluorobenzyl)thio)-4-(4-fluorophenyl)-6-(4-phenylpiperazin-1-yl)pyrimidine-5-carbonitrile]
inhibition at 10 µM [1]: 10.6% | inhibition at 10 µM [2]: < 10% | inhibition at 10 µM [3]: < 10% | inhibition at 10 µM [4]: < 10% | inhibition at 10 µM [5]: 18.7% | inhibition at 10 µM [6]: < 10% | inhibition at 10 µM [7]: < 10% | inhibition at 10 µM [8]: < 10% | inhibition at 10 µM [9]: < 10% | inhibition at 10 µM [10]: < 10% | inhibition at 10 µM [11]: 12.5% | inhibition at 10 µM [12]: 10.3% | inhibition at 10 µM [13]: < 10% | inhibition at 10 µM [14]: < 10% | inhibition at 10 µM [15]: < 10% | inhibition at 10 µM [16]: < 10% | inhibition at 10 µM [17]: 25.2% | inhibition at 10 µM [18]: < 10% | inhibition at 10 µM [19]: < 10% | inhibition at 10 µM [20]: < 10% | inhibition at 10 µM [21]: < 10% | inhibition at 10 µM [22]: 10.4% | inhibition at 10 µM [23]: < 10% | inhibition at 10 µM [24]: < 10% | inhibition at 10 µM [25]: < 10% | inhibition at 10 µM [26]: 16.6% | inhibition at 10 µM [27]: 10.1% | inhibition at 10 µM [28]: < 10% | inhibition at 10 µM [29]: 22.3% | inhibition at 10 µM [30]: < 10% | inhibition at 10 µM [31]: < 10% | inhibition at 10 µM [32]: 24.3% | inhibition at 10 µM [33]: < 10% | inhibition at 10 µM [34]: 15.6% | inhibition at 10 µM [35]: < 10% | inhibition at 10 µM [36]: 12.4% | inhibition at 10 µM [37]: 11.8% | inhibition at 10 µM [38]: < 10% | inhibition at 10 µM [39]: 25.8%

CN1CCN(c2nc(SCc3ccc([N+](=O)[O-])cc3)nc(-c3ccc(F)cc3)c2C#N)CC1 [4k, 4-(4-Fluorophenyl)-6-(4-methylpiperazin-1-yl)-2-((4-nitrobenzyl)thio)pyrimidine-5-carbonitrile]
inhibition at 10 µM [1]: < 10% | inhibition at 10 µM [2]: 26.3% | inhibition at 10 µM [3]: < 10% | inhibition at 10 µM [4]: 47% | inhibition at 10 µM [5]: 22.4% | inhibition at 10 µM [6]: 46.5% | inhibition at 10 µM [7]: 40% | inhibition at 10 µM [8]: 18.7% | inhibition at 10 µM [9]: 26.4% | inhibition at 10 µM [10]: 27.2% | inhibition at 10 µM [11]: 23.3% | inhibition at 10 µM [12]: 21.3% | inhibition at 10 µM [13]: < 10% | inhibition at 10 µM [14]: < 10% | inhibition at 10 µM [15]: < 10% | inhibition at 10 µM [16]: < 10% | inhibition at 10 µM [17]: 25.9% | inhibition at 10 µM [18]: 19.7% | inhibition at 10 µM [19]: 42.6% | inhibition at 10 µM [20]: 29.3% | inhibition at 10 µM [21]: 15.7% | inhibition at 10 µM [22]: < 10% | inhibition at 10 µM [23]: < 10% | inhibition at 10 µM [24]: < 10% | inhibition at 10 µM [25]: 15.8% | inhibition at 10 µM [26]: 17.5% | inhibition at 10 µM [27]: < 10% | inhibition at 10 µM [28]: 12.4% | inhibition at 10 µM [29]: 17.8% | inhibition at 10 µM [30]: < 10% | inhibition at 10 µM [31]: < 10% | inhibition at 10 µM [32]: 28.6% | inhibition at 10 µM [33]: 16.8% | inhibition at 10 µM [34]: 25.7% | inhibition at 10 µM [35]: < 10% | inhibition at 10 µM [36]: 17.6% | inhibition at 10 µM [37]: 18.4% | inhibition at 10 µM [38]: < 10% | inhibition at 10 µM [39]: 19.8%

Cc1ccc(CSc2nc(-c3ccc(F)cc3)c(C#N)c(N3CCOCC3)n2)cc1 [4d, 4-(4-Fluorophenyl)-2-((4-methylbenzyl)thio)-6-morpholinopyrimidine-5-carbonitrile]
GI% ([1]; 10 μM one-dose): — (GI% < 10) | GI% [2]: 36.77% | GI% ([2]; Table 1): — (GI value > 70%) | GI% [3]: 21.35% | GI% ([3]; Table 1): — (GI value > 70%) | GI% ([4]; 10 μM one-dose): 34.62% | GI% ([5]; 10 μM one-dose): 13.10% | GI% ([6]; 10 μM one-dose): 11.94% | GI% ([7]; 10 μM one-dose): 10.06% | GI% ([8]; 10 μM one-dose): 24.90% | GI% [9]: 55.92% | GI% ([9]; Table 1): — (GI value > 70%) | GI% ([10]; 10 μM one-dose): 26.17% | GI% [11]: 10.67% | GI% ([11]; Table 1): — (GI value > 70%) | GI% ([12]; 10 μM one-dose): 44.57% | GI% ([13]; 10 μM one-dose): 13.13% | GI% ([14]; 10 μM one-dose): — (GI% < 10) | GI% ([15]; 10 μM one-dose): — (GI% < 10) | GI% ([16]; 10 μM one-dose): — (GI% < 10) | GI% ([17]; 10 μM one-dose): — (GI% < 10) | GI% ([18]; 10 μM one-dose): — (GI% < 10) | GI% [19]: 48.85% | GI% ([19]; Table 1): — (GI value > 70%) | GI% ([20]; 10 μM one-dose): 32.25% | GI% ([21]; 10 μM one-dose): — (GI% < 10) | GI% [22]: 20.15% | GI% ([22]; Table 1): — (GI value > 70%) | GI% ([23]; 10 μM one-dose): — (GI% < 10) | GI% ([24]; 10 μM one-dose): — (GI% < 10) | GI% ([25]; 10 μM one-dose): — (GI% < 10) | GI% ([26]; 10 μM one-dose): — (GI% < 10) | GI% ([27]; 10 μM one-dose): — (GI% < 10) | GI% ([28]; 10 μM one-dose): — (GI% < 10) | GI% ([29]; 10 μM one-dose): — (GI% < 10) | GI% ([30]; 10 μM one-dose): — (GI% < 10) | GI% ([31]; 10 μM one-dose): — (GI% < 10) | GI% ([32]; 10 μM one-dose): 12.46% | GI% ([33]; 10 μM one-dose): — (GI% < 10) | GI% ([34]; 10 μM one-dose, Table 1): 88.04% | GI% ([35]; 10 μM one-dose): — (GI% < 10) | GI% ([36]; 10 μM one-dose): — (GI% < 10) | GI% ([37]; 10 μM one-dose): 19.81% | GI% ([38]; 10 μM one-dose): — (GI% < 10) | GI% ([39]; 10 μM one-dose): 22.83%
